Assay results as given in patent US20090137681A1, “Sirtuin Inhibiting Compounds” (priority 2005, published 2009).
“Also recorded” adds a separate entry of the source.

Experiments:
yeast Sir2 (ySir2) = molecular target: T1, yeast Sir2 (ySir2) (Saccharomyces cerevisiae, UniProt P06700); experiment: Yeast Sir2 deacetylase inhibition, HDAC fluorescent activity assay (BIOMOL AK-500); assay type: biochemical; settings: for inhibition at 100 µM: 100 μM inhibitor, read-out: % inhibtn (100 μM) ySir2; for inhibition at 100 µM / IC50: 200 μM NAD+, 30° C., 60 min; for ySir2 inhibitory activity, in words: compared with sirtinol 1
T1 construct: His; made in house
T1 sequence (P06700 whole entry): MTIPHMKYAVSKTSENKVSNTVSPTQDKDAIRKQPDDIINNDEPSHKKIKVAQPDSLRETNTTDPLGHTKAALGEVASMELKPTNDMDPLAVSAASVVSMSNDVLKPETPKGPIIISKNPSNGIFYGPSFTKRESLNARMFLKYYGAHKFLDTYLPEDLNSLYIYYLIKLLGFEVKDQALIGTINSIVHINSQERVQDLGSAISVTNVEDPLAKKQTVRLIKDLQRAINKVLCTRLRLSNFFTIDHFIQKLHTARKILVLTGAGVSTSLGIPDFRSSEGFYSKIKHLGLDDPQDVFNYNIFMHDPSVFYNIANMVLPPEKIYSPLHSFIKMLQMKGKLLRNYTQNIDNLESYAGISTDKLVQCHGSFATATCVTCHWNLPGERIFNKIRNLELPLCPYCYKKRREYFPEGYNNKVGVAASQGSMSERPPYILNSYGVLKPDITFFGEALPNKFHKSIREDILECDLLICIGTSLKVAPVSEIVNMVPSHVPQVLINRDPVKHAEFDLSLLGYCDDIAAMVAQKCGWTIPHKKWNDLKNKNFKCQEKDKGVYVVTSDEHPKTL
Protocol: (§1) Recombinant His-tagged yeast ySir2 and His-tagged hSIRT1 were purified and assayed for deacetylase activity using the HDAC fluorescent activity assay/drug discovery kit (AK-500, BIOMOL Research Laboratories).^55 This assay system allows detection of a fluorescent signal upon deacetylation of a histone substrate when treated with developer. Fluorescence was measured on a fluorometric reader (Wallac Victor III fluorescence plate reader Perkin Elmer) with excitation set at 360 nm and emission detection set at 450 nm. Reactions consisted of either 3 μg of ySir2 or 1 μg of SIRT1, incubated with 250 μM acetylated histone substrate, 1 mM dithiothreitol, and a range of inhibitor concentrations as described. Reactions with the yeast and human proteins were carried out at 30 and 37° C., respectively, for 60 min. Assays were performed in the presence of 200 μM NAD^+ and each of the inhibitors at 0, 20, 75, 100, 150, or 300 μM concentrations.
as §1, with “In Vitro Yeast Sir2 Enzyme Inhibition. Recombinant” for “Recombinant”, “Sir2p was” for “ySir2 and His-tagged hSIRT1 were”, “Laboratories).^42” for “Laboratories).^55”, “of” for “of either”, “ySir2” for “ySir2 or 1 μg of SIRT1,”

SIRT2 isoform 1 = molecular target: T2, SIRT2 isoform 1 (Homo sapiens, UniProt Q8IXJ6); experiment: SIRT2 deacetylase inhibition, HDAC fluorescent activity assay (BIOMOL AK-500); assay type: biochemical; settings: for IC50: dose response curve; for inhibition at 100 µM: read-out: SIRT2 % inhibition at 100 μM, 100 μM compound; for fold more potent than 1 in inhibiting SIRT2: relative to sirtinol 1
T2 construct: His; made in house
T2 sequence (Q8IXJ6 1-389): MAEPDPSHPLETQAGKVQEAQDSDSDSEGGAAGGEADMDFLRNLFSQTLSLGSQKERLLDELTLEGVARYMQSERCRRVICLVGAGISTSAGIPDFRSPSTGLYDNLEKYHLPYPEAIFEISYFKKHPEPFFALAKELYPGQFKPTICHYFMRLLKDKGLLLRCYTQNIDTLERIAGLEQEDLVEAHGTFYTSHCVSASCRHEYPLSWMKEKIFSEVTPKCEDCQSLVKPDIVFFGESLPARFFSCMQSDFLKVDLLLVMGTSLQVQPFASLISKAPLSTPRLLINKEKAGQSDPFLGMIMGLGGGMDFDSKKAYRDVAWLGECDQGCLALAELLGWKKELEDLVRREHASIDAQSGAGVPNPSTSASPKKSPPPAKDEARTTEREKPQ
Protocol: as §1
Recombinant His-tagged SIRT2 isoform 1 was purified and assayed for deacetylase activity using the HDAC fluorescent activity assay/drug discovery kit (AK-500, BIOMOL Research Laboratories) as described above. […] A dose response curve for determining the IC50 was also done.

human SIRT1 (hSIRT1) = molecular target: T3, human SIRT1 (hSIRT1) (Homo sapiens, UniProt Q96EB6); experiment: Human SIRT1 deacetylase inhibition, HDAC fluorescent activity assay (BIOMOL AK-500); assay type: biochemical; settings: for inhibition at 100 µM: 100 μM inhibitor, read-out: % inhibtn (100 μM) hSIRT1; for inhibition at 100 µM / IC50: 200 μM NAD+, 37° C., 60 min; for fold more potent than sirtinol (1) in inhibiting hSIRT1: relative to sirtinol 1
T3 construct: His; made in house
T3 sequence (Q96EB6 1-747): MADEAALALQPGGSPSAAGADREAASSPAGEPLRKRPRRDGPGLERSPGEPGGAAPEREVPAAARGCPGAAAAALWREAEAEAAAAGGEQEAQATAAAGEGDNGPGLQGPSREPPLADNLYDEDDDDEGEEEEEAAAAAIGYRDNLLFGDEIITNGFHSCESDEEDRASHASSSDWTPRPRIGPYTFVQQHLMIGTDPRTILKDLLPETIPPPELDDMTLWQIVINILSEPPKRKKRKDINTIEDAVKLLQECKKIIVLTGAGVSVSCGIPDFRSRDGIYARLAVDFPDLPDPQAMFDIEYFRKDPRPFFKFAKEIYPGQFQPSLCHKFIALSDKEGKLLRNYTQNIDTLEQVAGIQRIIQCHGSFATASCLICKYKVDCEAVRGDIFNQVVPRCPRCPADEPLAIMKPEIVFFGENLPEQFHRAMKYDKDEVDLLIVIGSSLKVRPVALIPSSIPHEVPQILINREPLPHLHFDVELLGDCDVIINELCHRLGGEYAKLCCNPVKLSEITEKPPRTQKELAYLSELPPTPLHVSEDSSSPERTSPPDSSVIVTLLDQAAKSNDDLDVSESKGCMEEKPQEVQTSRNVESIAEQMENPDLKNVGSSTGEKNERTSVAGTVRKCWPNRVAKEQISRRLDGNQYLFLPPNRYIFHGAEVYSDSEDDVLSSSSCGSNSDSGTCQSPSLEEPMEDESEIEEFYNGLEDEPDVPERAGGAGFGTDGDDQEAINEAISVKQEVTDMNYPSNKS
Protocol: as §1

[1] = test system: Sir2-mediated telomeric URA3 gene silencing; experiment: Telomeric silencing assay (phenotypic screening, URA3 reporter, 5-FOA); assay type: cell-based, yeast; settings: relative to sirtinol 1, plates with 5-FOA, densitometric scanning at 16.7 μM
Protocol: Wildtype (AYH2.45)^50 and sir2Δ (STY30)^50 strains were grown to exponential phase (0.5 OD/mL) in YPD medium and cells were spotted in 10-fold dilutions on SC medium containing 1 mg/mL 5-fluoroorotic acid (5-FOA).^51 When appropriate, cells were grown on plates containing 0.18% DMSO and the specified concentration of Sir2 inhibitor (5.6 and 16.7 μM). Cell growth was evaluated after 3-4 d at 30° C.
The yeast strain contained a URA3 reporter gene integrated into the sub-telomeric region of chromosome VII-L where it is silenced by Sir2.^50 In the presence of 5-fluoroorotic acid (5-FOA), loss of transcriptional silencing in this strain and the corresponding increase in URA3 expression is lethal (FIG. 2).^51
A semi-quantitative assay of the spots on the plates treated with 5-FOA and the Sir2 inhibitors at 16.7 μM concentration was performed by densitometric scanning of the plates.

Compound	inhibition at 100 µM (yeast Sir2 (ySir2)) [%]	fold less potent than sirtinol (1) in inhibiting ySir2 (yeast Sir2 (ySir2); relative to sirtinol 1) [fold]	inhibition at 100 µM (SIRT2 isoform 1) [%]	inhibition at 100 µM (human SIRT1 (hSIRT1)) [%]	melting point [°C]	ySir2 inhibitory activity, in words (yeast Sir2 (ySir2))	further results
CC(NC(=O)c1cccc(/N=C/c2c(O)ccc3ccccc23)c1)c1ccccc1 (stereo not shown) [Compound 7, 3-[(2-hydroxy-1-naphthalenylmethylene)amino]-N-(1-phenylethyl)benzamide]	53.9	1.5	79.2	63	–	IC50 values similar to that of 1; also recorded: IC50 values similar to those of 1	IC50 (yeast Sir2 (ySir2)): 72 ± 3 µM; IC50 (SIRT2 isoform 1): 35.7 µM; fold more potent than 1 in inhibiting SIRT2 (SIRT2 isoform 1): 1.6 fold; IC50 (human SIRT1 (hSIRT1)): 59 ± 2 µM; fold more potent than sirtinol (1) in inhibiting hSIRT1 (human SIRT1 (hSIRT1)): 2.2 fold; fold more potent than sirtinol (1) in inhibiting hSIRT1 (human SIRT1 (hSIRT1); listed as meta-sirtinol): 2 fold; Sir2 inhibitory potency in phenotypic screening, in words [1]: more potent inhibitors than 1; also recorded: more potent than sirtinol; also recorded: same potent Sir2 inhibitory as 1; Sir2 inhibitory potency in phenotypic screening, in words ([1]; listed as meta-sirtinol): more potent Sir2 inhibitory activity than sirtinol
CC(NC(=O)c1ccccc1/N=C/c1cccc2ccccc12)c1ccccc1 (stereo not shown) [Compound 2, 2-[(1-naphthalenylmethylene)amino]-N-(1-phenylethyl)benzamide]	10	–	–	33	101 to 103	–	–
CC(NC(=O)c1ccc(/N=C/c2c(O)ccc3ccccc23)cc1)c1ccccc1 (stereo not shown) [Compound 8, 4-[(2-hydroxy-1-naphthalenylmethylene)amino]-N-(1-phenylethyl)benzamide]	59.8	–	80.2	82.6	–	IC50 values similar to that of 1; also recorded: IC50 values similar to those of 1	IC50 (yeast Sir2 (ySir2)): 33 ± 1 µM; fold more potent than sirtinol (1) in inhibiting ySir2 (yeast Sir2 (ySir2); relative to sirtinol 1): 1.5 fold; SIRT2 inhibitory potency, in words (SIRT2 isoform 1; among compounds 1, 7-10): most potent; IC50 (SIRT2 isoform 1): 25.9 µM; fold more potent than 1 in inhibiting SIRT2 (SIRT2 isoform 1): 2.2 fold; IC50 (human SIRT1 (hSIRT1)): 13 µM; fold more potent than sirtinol (1) in inhibiting hSIRT1 (human SIRT1 (hSIRT1)): 10 fold; fold more potent than sirtinol (1) in inhibiting hSIRT1 (human SIRT1 (hSIRT1); listed as para-sirtinol): 8 fold; Sir2 inhibitory potency in phenotypic screening, in words ([1]; listed as para-sirtinol): more potent Sir2 inhibitory activity than sirtinol
CC(NC(=O)c1ccccc1/N=C/c1c(O)ccc2ccccc12)c1ccccc1 (racemic) [Compound 1, sirtinol, reference compound]	65.6	–	71	44.5	–	–	–

Further lines, with some results ahead:

inhibition at 100 µM (yeast Sir2 (ySir2)) [%]	fold less potent than sirtinol (1) in inhibiting ySir2 (yeast Sir2 (ySir2); relative to sirtinol 1) [fold]	inhibition at 100 µM (SIRT2 isoform 1) [%]	inhibition at 100 µM (human SIRT1 (hSIRT1)) [%]	melting point [°C]	Compound	ySir2 inhibitory activity, in words (yeast Sir2 (ySir2))	further results
0 to 5	–	–	0 to 5	238 to 240	NC(=O)c1ccccc1/N=C/c1c(O)ccc2ccccc12 [Compound 5]	totally inactive; also recorded: total loss of Sir2 inhibitory activity	hSIRT1 inhibitory activity, in words (human SIRT1 (hSIRT1)): totally inactive
20	3	–	9	–	CCOC(=O)c1ccccc1/N=C/c1c(O)ccc2ccccc12 [Compound 3]	–	–
5	–	–	26	180 to 182	O=C(O)c1ccccc1/N=C/c1c(O)ccc2ccccc12 [Compound 4]	–	–
15	4	–	20	139 to 141	N#Cc1ccccc1/N=C/c1c(O)ccc2ccccc12 [Compound 6]	–	–
55.5	–	72.2	61.8	–	C[C@@H](NC(=O)c1ccccc1/N=C/c1c(O)ccc2ccccc12)c1ccccc1 [Compound 9, (R)-sirtinol]	IC50 values similar to that of sirtinol 1	–
57	–	73.5	60.2	–	C[C@H](NC(=O)c1ccccc1/N=C/c1c(O)ccc2ccccc12)c1ccccc1 [Compound 10, (S)-2-[(2-hydroxy-1-naphthalenylmethylene)amino]-N-(1-phenylethyl)benzamide]	IC50 values similar to that of sirtinol 1	–
